Laboratory results from ChEMBL document CHEMBL3217751, “Potent inhibition of Ca2+-dependent activation of calpain-1 by novel mercaptoacrylates” (Medchemcomm, 2012).
Active and inactive are the calls of the source. The calls are words filed in the database; no cut-off is given here.

Columns and labels:
[1] = biological target: T1, Calpain-1 catalytic subunit (Sus scrofa, UniProt P35750); experiment: Inhibition of Ca2+-dependent activation of porcine calpain-1 using H-K(FAM)-EVYGMMK(DABCYL)-OH as substrate by FRET assay
T1 sequence (P35750 whole entry): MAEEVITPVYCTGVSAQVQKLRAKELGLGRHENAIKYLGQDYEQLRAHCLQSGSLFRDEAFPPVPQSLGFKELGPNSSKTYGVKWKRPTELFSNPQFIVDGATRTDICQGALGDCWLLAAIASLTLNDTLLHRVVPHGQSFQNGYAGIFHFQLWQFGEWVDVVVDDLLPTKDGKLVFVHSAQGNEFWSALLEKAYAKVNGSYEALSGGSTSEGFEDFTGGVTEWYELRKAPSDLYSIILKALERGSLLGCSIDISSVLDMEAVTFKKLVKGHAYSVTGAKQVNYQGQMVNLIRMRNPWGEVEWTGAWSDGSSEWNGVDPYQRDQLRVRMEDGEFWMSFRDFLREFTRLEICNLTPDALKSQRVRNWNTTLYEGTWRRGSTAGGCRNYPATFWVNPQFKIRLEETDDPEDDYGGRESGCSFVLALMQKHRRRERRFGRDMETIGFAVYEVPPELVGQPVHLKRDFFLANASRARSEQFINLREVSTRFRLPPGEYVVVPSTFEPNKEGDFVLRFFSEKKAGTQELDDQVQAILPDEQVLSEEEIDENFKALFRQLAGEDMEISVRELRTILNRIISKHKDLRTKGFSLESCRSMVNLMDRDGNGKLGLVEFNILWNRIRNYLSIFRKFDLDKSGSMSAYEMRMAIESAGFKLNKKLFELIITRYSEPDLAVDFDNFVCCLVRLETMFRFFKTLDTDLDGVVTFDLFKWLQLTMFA

[2] = biological target: T1, Calpain-1 catalytic subunit; experiment: Inhibition of Ca2+-dependent activation of porcine calpain-1 using SucLY-AMC as substrate
[3] = biological target: T2, Calpain-1 catalytic subunit (Homo sapiens) (UniProt P07384); experiment: Inhibition of calpain-1 in human neutrophils assessed as cell spreading at 10 uM
T2 sequence (whole entry): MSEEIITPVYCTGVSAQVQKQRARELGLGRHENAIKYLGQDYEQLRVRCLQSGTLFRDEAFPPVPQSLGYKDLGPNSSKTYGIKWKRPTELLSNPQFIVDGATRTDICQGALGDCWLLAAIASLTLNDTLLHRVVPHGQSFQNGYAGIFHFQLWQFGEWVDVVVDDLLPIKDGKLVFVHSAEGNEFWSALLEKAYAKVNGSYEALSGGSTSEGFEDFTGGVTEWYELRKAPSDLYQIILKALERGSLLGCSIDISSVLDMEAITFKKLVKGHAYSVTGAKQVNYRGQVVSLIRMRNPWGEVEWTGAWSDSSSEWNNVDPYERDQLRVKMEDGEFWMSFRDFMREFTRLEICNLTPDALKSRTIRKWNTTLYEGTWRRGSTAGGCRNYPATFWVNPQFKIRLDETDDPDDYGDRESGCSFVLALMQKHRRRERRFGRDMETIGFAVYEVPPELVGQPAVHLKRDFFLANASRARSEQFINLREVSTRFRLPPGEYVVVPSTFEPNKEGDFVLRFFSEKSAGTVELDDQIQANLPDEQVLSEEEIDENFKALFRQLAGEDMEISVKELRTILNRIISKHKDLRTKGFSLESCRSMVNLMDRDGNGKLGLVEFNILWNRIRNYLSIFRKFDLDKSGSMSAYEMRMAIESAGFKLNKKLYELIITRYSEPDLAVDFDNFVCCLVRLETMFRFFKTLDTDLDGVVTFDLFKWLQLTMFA

[4] = biological target: T3, Calpain-1 catalytic subunit (Homo sapiens, UniProt P07384); experiment: Inhibition of human erythrocytes mu-calpain using SLLVY-AMC as substrate after 60 mins
T3 sequence (P07384 whole entry): T2 sequence (whole entry)

[5] = biological target: T4, Calpain-2 catalytic subunit (Homo sapiens, UniProt P17655); experiment: Inhibition of calpain-2 (unknown origin)
T4 sequence (P17655 whole entry): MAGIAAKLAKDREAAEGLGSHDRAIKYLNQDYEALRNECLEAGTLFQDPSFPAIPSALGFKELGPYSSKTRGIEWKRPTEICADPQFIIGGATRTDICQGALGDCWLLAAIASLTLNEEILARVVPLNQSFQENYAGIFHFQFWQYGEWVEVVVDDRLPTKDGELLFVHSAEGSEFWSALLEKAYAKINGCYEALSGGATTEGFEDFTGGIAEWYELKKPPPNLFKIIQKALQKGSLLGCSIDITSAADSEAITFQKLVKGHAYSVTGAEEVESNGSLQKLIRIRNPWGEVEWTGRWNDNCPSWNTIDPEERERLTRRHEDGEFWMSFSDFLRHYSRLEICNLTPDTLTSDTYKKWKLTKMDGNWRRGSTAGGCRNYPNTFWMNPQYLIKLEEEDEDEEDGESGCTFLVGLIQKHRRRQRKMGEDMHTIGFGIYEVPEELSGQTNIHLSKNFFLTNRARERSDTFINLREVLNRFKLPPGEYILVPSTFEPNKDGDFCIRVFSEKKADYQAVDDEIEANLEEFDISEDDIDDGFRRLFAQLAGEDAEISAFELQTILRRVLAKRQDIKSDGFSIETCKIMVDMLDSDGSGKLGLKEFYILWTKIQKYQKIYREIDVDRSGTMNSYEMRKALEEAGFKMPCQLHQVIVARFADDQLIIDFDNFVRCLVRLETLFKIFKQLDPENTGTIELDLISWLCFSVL

| SMILES | IC50 [1] | IC50 [2] | inhibition [3] | Ki [4] | Ki [5] |
| --- | --- | --- | --- | --- | --- |
| O=C(O)/C(S)=C/c1c[nH]c2c(Cl)cccc12 | 10 nM | 90 nM |  |  |  |
| O=C(O)/C(S)=C/c1ccc(F)cc1 | 6900 nM | 5600 nM |  |  |  |
| O=C(O)/C(S)=C/c1c[nH]c2cccc(Br)c12 | 6 nM | 100 nM |  |  |  |
| O=C(O)/C(S)=C/c1c[nH]c2cc(F)ccc12 | 10 nM | 300 nM | Active |  |  |
| O=C(O)/C(S)=C/c1c[nH]c2ccc(Br)cc12 | 6 nM | 20 nM |  |  |  |
| O=C(O)/C(S)=C/c1c[nH]c2cc(Br)ccc12 | 7 nM | 90 nM | Active |  |  |
| O=C(O)/C(S)=C/c1ccccc1Br | 21000 nM | 9100 nM |  |  |  |
| O=C(O)/C(S)=C/c1cccc(F)c1 | 19000 nM | 31500 nM |  |  |  |
| O=C(O)/C(S)=C/c1c[nH]c2cccc(Cl)c12 | 20 nM | 140 nM |  |  |  |
| O=C(O)/C(S)=C/c1c[nH]c2c(I)cccc12 | 90 nM | 220 nM |  |  |  |
| O=C(O)/C(S)=C/c1ccccc1F | 21900 nM | 23200 nM |  |  |  |
| O=C(O)/C(S)=C/c1c[nH]c2cc(I)ccc12 | 170 nM | 300 nM |  |  |  |
| O=C(O)/C(S)=C/c1c[nH]c2ccc(I)cc12 | 100 nM | 90 nM |  |  |  |
| O=C(O)/C(S)=C/c1cccc(Cl)c1 | 4200 nM | 13100 nM |  |  |  |
| O=C(O)/C(S)=C/c1c[nH]c2c(F)cccc12 | 120 nM | 110 nM |  |  |  |
| O=C(O)/C(S)=C/c1ccc(Br)cc1 | 1500 nM | 1500 nM |  |  |  |
| O=C(O)/C(S)=C/c1ccc(Cl)cc1 | 2600 nM | 15000 nM |  |  |  |
| O=C(O)/C(S)=C/c1ccccc1Cl | 11900 nM | 20700 nM |  |  |  |
| O=C(O)/C(S)=C/c1ccc(I)cc1 | 2200 nM | 5200 nM |  | 210 nM | 370 nM |
| O=C(O)/C(S)=C/c1c[nH]c2cc(Cl)ccc12 | 210 nM | 100 nM | Active |  |  |
| O=C(O)/C(S)=C/c1c[nH]c2cccc(F)c12 | 10 nM | 300 nM |  |  |  |
| O=C(O)/C(S)=C/c1c[nH]c2ccc(Cl)cc12 | 250 nM | 50 nM |  |  |  |
| O=C(O)/C(S)=C/c1c[nH]c2c(Br)cccc12 | 2 nM | 70 nM |  |  |  |
| O=C(O)/C(S)=C/c1cccc(I)c1 | 4300 nM | 23900 nM |  |  |  |
| O=C(O)/C(S)=C/c1cccc(Br)c1 | 4000 nM | 8400 nM |  |  |  |
| O=C(O)/C(S)=C/c1c[nH]c2ccc(F)cc12 | 800 nM | 930 nM |  | 260 nM | 5330 nM |
